pIC50: −log10 of the molar value. Where “and” joins values, the source holds several entries; their conditions need not be identical. Equal values may be shown once.
Columns and labels:
[1] = target: T1, Tyrosine-protein phosphatase non-receptor type 1 (Homo sapiens, UniProt P18031); experiment: Inhibition of Protein-tyrosine phosphatase 1B in 300 nM DTT
T1 sequence (P18031 whole entry): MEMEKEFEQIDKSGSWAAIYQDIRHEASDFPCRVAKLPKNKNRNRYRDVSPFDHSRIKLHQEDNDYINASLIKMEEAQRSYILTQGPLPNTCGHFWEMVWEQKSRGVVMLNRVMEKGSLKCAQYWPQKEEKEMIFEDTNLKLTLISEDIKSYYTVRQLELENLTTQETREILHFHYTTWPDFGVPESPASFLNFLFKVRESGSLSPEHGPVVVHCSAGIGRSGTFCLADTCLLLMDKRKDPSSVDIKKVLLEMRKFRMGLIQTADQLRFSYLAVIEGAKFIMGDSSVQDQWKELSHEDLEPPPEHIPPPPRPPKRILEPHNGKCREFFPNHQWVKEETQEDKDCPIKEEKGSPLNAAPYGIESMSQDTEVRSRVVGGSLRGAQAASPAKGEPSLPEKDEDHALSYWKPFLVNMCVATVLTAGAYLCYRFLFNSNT

[2] = target: T1, Tyrosine-protein phosphatase non-receptor type 1; experiment: Inhibition of Protein-tyrosine phosphatase 1B in 2 mM DTT
[3] = target: Receptor-type tyrosine-protein phosphatase F (Homo sapiens, UniProt P10586); experiment: In vitro inhibitory concentration required against Leukocyte antigen related receptor phosphatase (LAR) in the presence of 300 nM DTT
[4] = Cmax value was determined; assay type: ADME, organism-based; conditions: mouse, in vivo
[5] = Steady state volume of distribution was determined in mice; assay type: ADME, organism-based; conditions: mouse, in vivo; read-out: Vss
[6] = Half life in mice; assay type: ADME, organism-based; conditions: mouse, in vivo
[7] = target: Receptor-type tyrosine-protein phosphatase alpha (Homo sapiens, UniProt P18433); experiment: In vitro inhibitory concentration required against Protein-tyrosine phosphatase alpha in the presence of 300 nM DTT
[8] = system: Mus musculus; experiment: Percent change in blood glucose in male ob/ob mice dosed at 5 mg/kg orally evaluated 2 hr postdose on day 5; assay type: functional; conditions: route oral
[9] = Oral availability at 50 mg/kg po in male mice; assay type: ADME, organism-based; parameters: dose 50 mg/kg, route oral; conditions: mouse, in vivo
[10] = target: T2, Tyrosine-protein phosphatase non-receptor type 11 (Homo sapiens, UniProt Q06124); experiment: In vitro inhibitory concentration required against Tyrosine phosphatase SHP-2 in the presence of 300 nM DTT
T2 sequence (Q06124 whole entry): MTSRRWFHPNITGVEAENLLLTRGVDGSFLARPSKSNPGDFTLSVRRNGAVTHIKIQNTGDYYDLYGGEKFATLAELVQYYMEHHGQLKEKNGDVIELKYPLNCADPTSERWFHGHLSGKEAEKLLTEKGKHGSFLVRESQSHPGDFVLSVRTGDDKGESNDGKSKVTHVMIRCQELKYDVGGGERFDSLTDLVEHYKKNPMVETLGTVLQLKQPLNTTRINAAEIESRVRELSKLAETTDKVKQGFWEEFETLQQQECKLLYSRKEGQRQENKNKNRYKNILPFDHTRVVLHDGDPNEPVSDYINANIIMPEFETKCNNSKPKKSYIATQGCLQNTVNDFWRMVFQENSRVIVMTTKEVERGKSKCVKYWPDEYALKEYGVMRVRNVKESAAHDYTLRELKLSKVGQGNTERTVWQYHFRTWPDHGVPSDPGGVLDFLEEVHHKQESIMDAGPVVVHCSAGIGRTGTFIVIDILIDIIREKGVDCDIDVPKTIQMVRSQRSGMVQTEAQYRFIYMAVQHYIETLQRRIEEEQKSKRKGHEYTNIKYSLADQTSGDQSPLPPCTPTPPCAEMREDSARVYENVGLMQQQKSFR

[11] = Plasma clearance in mice; assay type: ADME, organism-based; conditions: mouse

Receptor-type tyrosine-protein phosphatase alpha, sequence (P18433 whole entry): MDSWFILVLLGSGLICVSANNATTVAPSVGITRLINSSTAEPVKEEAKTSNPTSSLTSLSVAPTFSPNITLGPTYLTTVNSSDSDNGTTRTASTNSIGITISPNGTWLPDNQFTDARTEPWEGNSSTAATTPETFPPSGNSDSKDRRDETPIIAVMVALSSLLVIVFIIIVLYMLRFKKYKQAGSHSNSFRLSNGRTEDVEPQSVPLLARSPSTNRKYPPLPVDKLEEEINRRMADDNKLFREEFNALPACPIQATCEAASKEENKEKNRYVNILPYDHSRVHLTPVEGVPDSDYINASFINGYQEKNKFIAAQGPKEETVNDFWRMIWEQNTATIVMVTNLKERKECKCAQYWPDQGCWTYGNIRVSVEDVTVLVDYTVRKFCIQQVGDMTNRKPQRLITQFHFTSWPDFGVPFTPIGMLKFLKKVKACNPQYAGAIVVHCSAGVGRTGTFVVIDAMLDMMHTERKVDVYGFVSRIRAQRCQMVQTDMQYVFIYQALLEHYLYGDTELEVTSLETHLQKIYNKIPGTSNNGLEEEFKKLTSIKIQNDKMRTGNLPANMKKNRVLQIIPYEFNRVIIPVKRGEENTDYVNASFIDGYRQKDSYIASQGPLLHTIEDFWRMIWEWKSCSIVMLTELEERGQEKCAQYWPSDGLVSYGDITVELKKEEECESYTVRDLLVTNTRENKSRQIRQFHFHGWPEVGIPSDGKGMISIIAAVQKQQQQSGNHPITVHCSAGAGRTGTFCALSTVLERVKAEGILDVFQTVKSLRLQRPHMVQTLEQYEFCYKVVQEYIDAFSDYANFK
Receptor-type tyrosine-protein phosphatase F, sequence (P10586 whole entry): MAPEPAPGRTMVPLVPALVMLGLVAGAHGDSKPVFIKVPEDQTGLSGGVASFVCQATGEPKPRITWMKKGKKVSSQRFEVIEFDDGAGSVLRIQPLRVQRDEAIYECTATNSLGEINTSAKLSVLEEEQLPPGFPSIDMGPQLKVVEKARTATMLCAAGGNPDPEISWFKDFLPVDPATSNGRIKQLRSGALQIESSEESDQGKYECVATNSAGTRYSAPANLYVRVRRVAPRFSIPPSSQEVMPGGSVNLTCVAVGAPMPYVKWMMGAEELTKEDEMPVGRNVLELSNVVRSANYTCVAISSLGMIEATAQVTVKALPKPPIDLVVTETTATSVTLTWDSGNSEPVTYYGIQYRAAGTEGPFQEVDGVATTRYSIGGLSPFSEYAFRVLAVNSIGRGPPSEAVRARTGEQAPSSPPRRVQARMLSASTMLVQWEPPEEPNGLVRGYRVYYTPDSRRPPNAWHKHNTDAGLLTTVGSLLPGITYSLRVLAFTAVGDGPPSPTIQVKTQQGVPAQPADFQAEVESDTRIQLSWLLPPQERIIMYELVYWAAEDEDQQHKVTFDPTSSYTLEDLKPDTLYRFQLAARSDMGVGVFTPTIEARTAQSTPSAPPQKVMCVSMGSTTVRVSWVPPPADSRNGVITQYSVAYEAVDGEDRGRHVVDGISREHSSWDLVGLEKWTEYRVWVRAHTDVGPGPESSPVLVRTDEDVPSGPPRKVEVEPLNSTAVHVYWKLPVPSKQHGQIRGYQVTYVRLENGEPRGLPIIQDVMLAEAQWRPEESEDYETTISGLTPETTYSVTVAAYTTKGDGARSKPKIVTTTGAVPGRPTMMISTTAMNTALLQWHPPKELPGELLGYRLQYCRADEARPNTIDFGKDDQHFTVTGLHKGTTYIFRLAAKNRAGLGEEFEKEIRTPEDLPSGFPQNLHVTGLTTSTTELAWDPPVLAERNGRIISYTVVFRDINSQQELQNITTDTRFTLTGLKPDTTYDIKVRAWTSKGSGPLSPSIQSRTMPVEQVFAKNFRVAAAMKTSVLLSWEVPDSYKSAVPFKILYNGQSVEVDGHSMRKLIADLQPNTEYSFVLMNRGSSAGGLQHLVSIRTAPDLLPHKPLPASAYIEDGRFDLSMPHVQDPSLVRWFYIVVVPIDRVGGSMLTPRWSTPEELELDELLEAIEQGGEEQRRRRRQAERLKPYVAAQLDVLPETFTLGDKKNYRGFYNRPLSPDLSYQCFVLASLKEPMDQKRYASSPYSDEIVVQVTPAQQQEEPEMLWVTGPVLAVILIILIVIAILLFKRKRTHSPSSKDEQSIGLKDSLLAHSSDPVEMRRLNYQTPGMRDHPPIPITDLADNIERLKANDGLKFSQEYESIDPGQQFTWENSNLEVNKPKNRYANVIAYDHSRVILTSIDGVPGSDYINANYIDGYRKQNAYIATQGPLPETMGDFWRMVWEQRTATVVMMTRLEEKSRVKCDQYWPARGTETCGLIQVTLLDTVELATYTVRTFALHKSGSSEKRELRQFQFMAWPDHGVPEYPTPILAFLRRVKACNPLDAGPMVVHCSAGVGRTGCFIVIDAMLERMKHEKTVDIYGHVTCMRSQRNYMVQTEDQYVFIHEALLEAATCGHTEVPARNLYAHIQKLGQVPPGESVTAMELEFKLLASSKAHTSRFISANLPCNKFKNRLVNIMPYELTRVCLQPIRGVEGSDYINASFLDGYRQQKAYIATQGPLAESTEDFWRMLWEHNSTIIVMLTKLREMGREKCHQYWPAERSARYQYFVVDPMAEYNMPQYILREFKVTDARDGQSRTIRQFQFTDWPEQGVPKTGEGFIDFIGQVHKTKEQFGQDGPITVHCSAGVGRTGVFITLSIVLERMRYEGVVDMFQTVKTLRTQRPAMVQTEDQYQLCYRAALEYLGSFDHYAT

Compound | pIC50 [1] | pIC50 [2] | also measured
Nc1nc(N)c2nc(CN3CCN(Cc4cccc5ccccc45)CC3)nnc2n1 | 5.35 | 4.40 | 
Nc1nc(N)c2nc(CN3CCN(Cc4ccc5ccccc5c4)CC3)nnc2n1 | 5.46 | 4.48 | 
Nc1nc(N)c2nc(CN3CCN(Cc4ccc(-c5ccccc5)cc4)CC3)nnc2n1 | 5.54 and 5.10 | 4.74 | pIC50 [3]: 4.80; Cmax [4]: 4 µM; Vd [5]: 3.1 L/kg; half-life [6]: 1 h; pIC50 [7]: 4.82; Change in blood glucose [8]: -19%; bioavailability [9]: 97%; pIC50 [10]: 5.30; clearance [11]: 104 mL/min/kg
CCN(CC)Cc1nnc2nc(N)nc(N)c2n1 | 4.54 and 4.92 | < 4.00 | pIC50 [3]: 4.55; pIC50 [7]: 4.55; pIC50 [10]: 4.85
Nc1nc(N)c2nc(CN3CCNCC3)nnc2n1 | 4.54 | 4.04 | 
Nc1nc(N)c2nc(CN(CCO)CCO)nnc2n1 | 4.01 | < 4.00 | 

Further lines, with some results ahead:

pIC50 [1] | pIC50 [2] | Compound | also measured
< 4.00 | < 4.00 | Nc1nc(N)c2nc(CN3CCN(c4ccccc4)CC3)nnc2n1 | 
5.21 and 5.10 | 4.01 | Nc1nc(N)c2nc(CN3CCN(Cc4ccccc4)CC3)nnc2n1 | pIC50 [3]: 4.92; pIC50 [7]: 4.62; Change in blood glucose [8]: -23%; pIC50 [10]: 5.05
4.68 | 4.06 | CN1CCN(Cc2nnc3nc(N)nc(N)c3n2)CC1 | 
4.62 | < 4.00 | Nc1nc(N)c2nc(CN3CCCCC3)nnc2n1 | 
4.62 | < 4.00 | Nc1nc(N)c2nc(CN3CCOCC3)nnc2n1 | 

Reference: ChEMBL document CHEMBL1136184, “Identification of a novel class of orally active pyrimido[5,4-3][1,2,4]triazine-5,7-diamine-based hypoglycemic agents with protein tyrosine phosphatase inhibitory activity” (Bioorg Med Chem Lett, 2003)
